{
  "source": "patent US7667052B2",
  "about": "(Eisai R&D Management Co., Ltd., priority 2003, dated 2010)",
  "key": {"[1]": {"system": "VEGF production in U251 human glioma cell", "assay": "VEGF production suppressing action under low oxygen, ELISA", "assay_type": "cell-based", "settings": "U251, low oxygen stimulation", "experimental": "U251 human glioma cell cultured in DULBECCO-modified eagle medium (DMEM; manufactured by SIGMA Co., Ltd.) containing 10% fetal calf serum, penicillin (100 unit/ml) and streptomycin (100 μg/ml) was dispensed in 96-well plates by 4×10^4 cells/well. After culturing at 37° C. overnight in a CO2 incubator (5% CO2), the media were removed, and 180 μl of the above-mentioned incubation solution was charged. After adding 20 μL of the above-mentioned incubation solution containing the test compound diluted with 3-fold succession, they were incubated in a low oxygen (2% O2) incubator for 18 hours. The supernatants thereof were measured by an ELISA kit (Immunobiology Research Institute).\nConcentration at which the amount of VEGF expressed by low oxygen stimulation was suppressed to 50% (IC50 value) was determined and results are shown in Table 9. […] The activities of 11107F and 11107G were very weak."}, "[2]": {"system": "VEGF production in HT1080", "assay": "VEGF production suppressing action in various carcinoma cells, ELISA", "assay_type": "cell-based", "settings": "Homo sapiens; HT 1080, low oxygen 18 hours", "experimental": "(§1) WiDr human colon cancer cell, PC3 human prostate cancer cell, DU145 human […] cancer cell and HT1080 human […] cancer cell, which were cultured in DULBECCO-modified eagle medium (manufactured by DMEM SIGMA Co., Ltd.) containing 10% fetal calf serum, penicillin (100 unit/ml) and streptomycin (100 μg/ml) were dispensed in 96 well plates by 3×10^4 cells/well. After culturing at 37° C. overnight in a CO2 incubator (5% CO2), the media were removed, and 180 μl of the above-mentioned incubation solution was charged. After adding 20 μL of the above-mentioned incubation solution containing the test compound diluted with 3-fold succession, they were incubated in a low oxygen ([…]) incubator for 18 hours. The supernatants thereof were measured by an ELISA kit (Immunobiology Research Institute).\n(§2) Concentration at which the amount of VEGF expressed by low oxygen stimulation was suppressed to 50% (IC50 value) was determined and results are shown in Table 10."}, "[3]": {"system": "VEGF production in WiDr human colon cancer cell", "assay": "VEGF production suppressing action in various carcinoma cells, ELISA", "assay_type": "cell-based", "settings": "low oxygen 18 hours", "experimental": "as §1, §2"}, "[4]": {"system": "VEGF production in DU145 human colon cancer cell", "assay": "VEGF production suppressing action in various carcinoma cells, ELISA", "assay_type": "cell-based", "settings": "DU-145, low oxygen 18 hours", "experimental": "as §1, §2"}, "[5]": {"system": "VEGF production in PC3 human prostate cancer cell", "assay": "VEGF production suppressing action in various carcinoma cells, ELISA", "assay_type": "cell-based", "settings": "PC 3, low oxygen 18 hours", "experimental": "as §1, §2"}, "[6]": {"system": "transcription from VEGF promoter", "assay": "VEGF transcription-suppressing activity, VEGF-PLAP reporter in U251/1-8 cell", "assay_type": "cell-based", "settings": "Homo sapiens, U-251, U251/1-8 cell, PLAP activity, low oxygen 18 hours", "how_it_was_run": "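U251 glioma clone stably carrying a ~2.3 kb human VEGF promoter–secreted PLAP reporter, 4×10^4 cells/well, exposed to 3-fold dilutions of compound for 18 h under low oxygen. Supernatant PLAP read by chemiluminescence at pH 10.0; IC50 = 50% suppression, normoxia 0%, hypoxia 100%.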"}, "[7]": {"system": "human breast cancer BSY-1 cell", "assay": "Solid cancer proliferation suppressing action, subcutaneous transplant", "assay_type": "in vivo, mice", "settings": "single administration, 10 mg/kg intravenous", "experimental": "In order to study solid cancer proliferation suppressing action of 11107B in vivo, human breast cancer BSY-1 cell was transplanted to the subcutaneous body sides of mice. The animals were grouped so that the average of the volumes of the respective groups became uniform, when it reached about 100 mm^3. Control group was made as 10 mice and 11107B-administering groups were made as 5 mice. 11107B was administrated for the 11107B-administering groups once by intravenous injection so as to be 10 mg/kg, and a vehicle was administered to the control group. The tumor volumes on the fifth day, eighth day, 12th day and 15th day were measured, and relative tumor volumes were determined setting the tumor volume at the initiation of administration as 1."}},
  "note": "Read-outs that look alike come from different tables or passages of the source.",
  "data": [
    {"smiles": "CCC(O)C(C)C1OC1CC(C)/C=C/C=C(\\C)C1OC(=O)CC(O)CCC(C)(O)C(OC(C)=O)/C=C/C1C", "note": "(centres unmarked) [11107B]", "values": [
      {"measurement": "VEGF production suppression, in words", "setting": "[1]", "result": "suppressed most strongly VEGF production"},
      {"measurement": "IC50", "setting": "[2]", "result": 1.89, "unit": "ng/mL"},
      {"measurement": "IC50", "setting": "[3]", "result": 0.65, "unit": "ng/mL"},
      {"measurement": "IC50", "setting": "[4]", "result": 1.05, "unit": "ng/mL"},
      {"measurement": "IC50", "setting": "[5]", "result": 0.71, "unit": "ng/mL"},
      {"measurement": "IC50", "setting": "[6]; read-out: IC50 values of VEGF transcription-suppressing activity (range given)", "result": "1 to 100", "unit": "nM"},
      {"measurement": "IC50", "setting": "[6]; read-out: VEGF transcription suppressing activity (IC50: nM)", "result": 1.8, "unit": "nM"},
      {"measurement": "solid tumor suppression, in words", "setting": "[7]", "result": "showed the effect of suppressing solid tumor"}
    ]}
  ]
}
